As a reminder, the IC50 is the point on the concentration scale where inhibition reaches its midpoint.

A short description of the assay: Inhibition of dog kidney Sodium/potassium-transporting ATPase by ELISA. Further details: species or system Canis lupus familiaris. (In general: An ELISA detects its analyte on a solid surface through an enzyme-linked reagent.)
Take `C[C@]12C[C@@H](O)[C@H]3[C@@H](CC[C@]4(O)C[C@@H](OC(=O)CCCCCCCCCCCCCO)CC[C@]34CO)[C@@]1(O)CC[C@@H]2c1ccc(=O)oc1`: half-maximal inhibition (IC50) was put at 100 nM. In the case of `C[C@]12C[C@@H](O)[C@H]3[C@@H](CC[C@]4(O)C[C@@H](OC(=O)CCCCC/C=C\CCCCCCO)CC[C@]34CO)[C@@]1(O)CC[C@@H]2c1ccc(=O)oc1`, half-maximal inhibition (IC50) was put at 100 nM. `C[C@]12C[C@@H](O)[C@H]3[C@@H](CC[C@]4(O)C[C@@H](OC(=O)CCCCCCCCCCCO)CC[C@]34CO)[C@@]1(O)CC[C@@H]2c1ccc(=O)oc1`: inhibition was half-maximal at 120 nM (IC50). In the case of `C[C@]12C[C@@H](O)[C@H]3[C@@H](CC[C@]4(O)C[C@@H](O)CC[C@]34CO)[C@@]1(O)CC[C@@H]2c1ccc(=O)oc1` it was 120 nM.

Values taken from ChEMBL document CHEMBL1151320, “Isolation and characterization of novel endogenous digitalis-like factors in the ovary of the giant toad, Bufo marinus” (J Nat Prod, 1998).
